Results reported in US6399606B1, “Neuroprotective agents and methods related thereto” (Nippon Kayaku Co., Ltd., priority 1999, dated 2002).

Tested on: rat taxol induced neuropathy model
Test: Rat taxol neuropathy model (sensory nerve conduction velocity)
Type: in vivo, Sprague-Dawley female rats
Settings: once daily
Protocol: In vivo efficacy of representative compounds were tested with rat taxol induced neuropathy model reported by Cliffer et al. (Ann. Neurol 43:46-55, 1998).
Method Sprague-Dawley female rats (215-225g) were used. One week prior to the initiation of dosing with test compounds, base line electrophysiological recording were obtained. Dosing of the test compounds was initiated one day prior to the first injection of taxol (A.G. Scientific). Beginning on Day 2 animals were injected with total of two doses of 15 mg/kg paclitaxel giving 3 days apart, for a cumulative dose of […].
On Day 1 of the study, all rat were randomized into groups of 10 each and weighed. Dosing with test compounds was initiated on Day 1 and continued for a total of 45 days. Test compounds were administered by intraperitoneal (i.p.) injection or by post orum (p.o.) gavage in conscious once daily. Paclitaxel was administered on Day 2 and 5 by tail vein injection at 6 mg/ml in 50% saline/25%Cremophore/25% ethanol. One group was given the paclitaxel vehicle alone in an equivalent volume. Test compounds were formulated for dosing daily, immediately prior to dosing. The compounds were formulated by adding 15% of the final volume of pure PEG400 to the compounds and mixed on an orbital shaker for 40 minutes. Following dissolution, saline was added and the solution was vortexed. Taxol (A.G. Scientific) is solvated with Cremophore-ethanol vehicle at 12 mg/ml and then diluted 50/50 with saline. The test compounds are solvated with saline at appropriate concentration.
Sensory and motor nerve conduction velocities were evaluated using a method based in the protocol described by De Koning and Gispen (Peptides 8:415-422, 1987). Electrophysiological evaluation was carried out as a double blind study. Animals were anesthetized with isofluorane. In order to maintain body temperature, anesthetized animals were placed on Deltaphase ™ Isothermal Pads and rectal temperatures were monitored. Stimulating needle electrodes were inserted close to the sciatic nerve at the sciatic notch and the tibial nerve near the ankle. Subcutaneous recording electrodes were placed over the distal lumbricales foot muscles. Stimuli were supramaximal square-waves of 0.1 msec duration generated with a Grass S88 Stimulator through a Grass stimulation isolation unit. An ETH-260 Bride/Bio Amplifier (CB Sciences Inc), computer (Macintosh Iici), and data acquisition system (MacLab/200) were used for the recordings. The motor and sensory nerve conduction velocities were calculated by measuring the distance between the sciatic notch and ankle sites, and the latency between the M-wave and the H-reflex. The electrophysiological evaluations were conducted 2 weeks later. Statistical analysis was carried out using unpaired t-tests and repeated measures of analysis of variance (ANOVA) using Statview. In all cases 5% was chosen as the level of statistical significance in two-tailed tests.

[1] = p.o. administration, 20 mg/kg, FIG. 2, 3

## COC(=O)CC(CSC[C@H](NC(C)=O)C(=O)OC)C(=O)c1cccnc1 (stereo partly drawn) [compound 60]
i.p. administration at 10 mg/kg, FIG. 1, 3
  amelioration of taxol-induced retardation of sensory nerve conduction velocity: active

## CC(=O)NCCSCC(CC(=O)N(C)C)C(=O)c1cccnc1 (stereo not drawn) [compound 188]
p.o. administration, 40 mg/kg, FIG. 2, 3
  amelioration of taxol-induced retardation of sensory nerve conduction velocity: active

## CC(=O)NCCSCC(CC(=O)N1CCCCC1)C(=O)c1cccnc1 (stereo not drawn) [compound 189]
i.p. administration at 2.5 mg/kg, FIG. 2
  amelioration of taxol-induced retardation of sensory nerve conduction velocity: active
[1]
  amelioration of taxol-induced retardation of sensory nerve conduction velocity: active

## CCN(CC)CCN(C)C(=O)C(CSCC(CC(=O)N(C)C)C(=O)c1cccnc1)NC(C)=O (stereo not drawn) [compound 438]
[1]
  amelioration of taxol-induced retardation of sensory nerve conduction velocity: active

## CC(=O)N[C@@H](CSCC(CC(=O)N(C)C)C(=O)c1cccnc1)C(=O)N1CCN(C)CC1 (stereo partly drawn) [compound 440]
[1]
  amelioration of taxol-induced retardation of sensory nerve conduction velocity: active
